Test results taken from patent US7811797B2, “α-isomaltosylglucosaccharide-forming enzyme, process and uses of the same” (Kabushiki Kaisha Hayashibara Seibutsu Kagaku Kenkyujo, priority 2000, dated 2010).

Tests used:
Parameters in all cases: key: −: no saccharide-transferred product was detected through transfer reaction to acceptor; ∀: a saccharide-transferred product was detected in an amount less than one percent through transfer reaction to acceptor; +: a saccharide-transferred product was detected in an amount over one percent but less than ten percent through transfer reaction to acceptor; ++: a saccharide-transferred product was detected in an amount over ten percent through transfer reaction to acceptor
[1] = test system: α-isomaltosylglucosaccharide-forming enzyme; assay: Transfer-acceptor specificity, Enzyme of Strain C9; format: biochemical, Bacillus globisporus C9; conditions: acceptor 1.6%, PINE-DEX #100 donor 4%, one unit/g donor, 30° C., pH 6.0, 24 hours
Experimental: (§1) Using different saccharides, it was tested whether the saccharides were used as transferring-acceptors for the α-isomaltosylglucosaccharide-forming enzyme of the present invention. A solution of D-glucose, D-xylose, L-xylose, D-galactose, D-fructose, D-mannose, D-arabinose, D-fucose, D-psicose, L-sorbose, L-rhamnose, methyl-α-glucopyranoside, methyl-β-glucopyranoside, N-acetyl-glucosamine, sorbitol, trehalose, isomaltose, isomaltotriose, cellobiose, gentibiose, glycerol, maltitol, lactose, sucrose, α-cyclodextrin, β-cyclodextrin, γ-cyclodextrin, or L-ascorbic acid was prepared.
(§2) To each solution with a saccharide concentration of 1.6% was added “PINE-DEX #100”, a partial starch hydrolysate, as a saccharide donor, to give a concentration of 4%, and admixed with one unit/g saccharide donor, d.s.b., of either of purified specimens of α-isomaltosylglucosaccharide-forming enzyme from Bacillus globisporus C9 obtained by the method in Experiment 4-2, Bacillus globisporus C11 obtained by the method in Experiment 7-2, Bacillus globisporus N75 obtained by the method in Experiment 11-2, or Arthrobacter globiformis A19 obtained by the method in Experiment 15-2, and incubated at 30° C. and pH 6.0, except that pH 8.4 was used for the enzyme from Arthrobacter globiformis A19, for 24 hours. The reaction mixtures of the post-enzymatic reactions were analyzed on gas chromatography (abbreviated as “GLC” hereinafter) for monosaccharides and disaccharides as acceptors, and on HPLC for trisaccharides as acceptors to confirm whether these saccharides could be used as their transfer acceptors. In the case of performing GLC, the following apparatuses and conditions are used: GLC apparatus, “GC-16A” commercialized by Shimadzu Corporation, Tokyo, Japan; column, a stainless-steel column, 3 mm in diameter and 2 m in length, packed with 2% “SILICONE OV-17/[…]”, commercialized by GL Sciences Inc., Tokyo, Japan; carrier gas, nitrogen gas at a flow rate of 40 ml/min under temperature conditions of increasing from 160° C. to 320° C. at an increasing temperature rate of 7.5° C./min; and detection, a hydrogen flame ionization detector. In the case of HPLC analysis, the apparatuses and conditions used are: HPLC apparatus, “CCPD” commercialized by Tosoh Corporation, Tokyo, Japan; column, “ODS-AQ-303” commercialized by YMC Co., Ltd., Tokyo, Japan; eluent, water at a flow rate of 0.5 ml/min; and detection, a differential refractometer.

[2] = test system: α-isomaltosylglucosaccharide-forming enzyme; assay: Transfer-acceptor specificity, Enzyme of Strain C11; format: biochemical, Bacillus globisporus C11; conditions: acceptor 1.6%, PINE-DEX #100 donor 4%, one unit/g donor, 30° C., pH 6.0, 24 hours
Experimental: as §1, §2

[3] = test system: α-isomaltosylglucosaccharide-forming enzyme; assay: Transfer-acceptor specificity, Enzyme of Strain N75; format: biochemical, Bacillus globisporus N75; conditions: acceptor 1.6%, PINE-DEX #100 donor 4%, one unit/g donor, 30° C., pH 6.0, 24 hours
Experimental: as §1, §2

[4] = test system: α-isomaltosylglucosaccharide-forming enzyme; assay: Transfer-acceptor specificity, Enzyme of Strain A19; format: biochemical, Arthrobacter globiformis A19; conditions: acceptor 1.6%, PINE-DEX #100 donor 4%, one unit/g donor, 30° C., pH 8.4, 24 hours
Experimental: as §1, §2

SMILES | Product of transferring reaction, Enzyme of Strain C9 [1] | Product of transferring reaction, Enzyme of Strain C11 [2] | Product of transferring reaction, Enzyme of Strain N75 [3] | Product of transferring reaction, Enzyme of Stain A19 [4]
O=C(CO)[C@@H](O)[C@H](O)[C@H](O)CO [D-Fructose] | + (a saccharide-transferred product was detected in an amount over one percent but less than ten percent through transfer reaction to acceptor) | + (a saccharide-transferred product was detected in an amount over one percent but less than ten percent through transfer reaction to acceptor) | + (a saccharide-transferred product was detected in an amount over one percent but less than ten percent through transfer reaction to acceptor) | + (a saccharide-transferred product was detected in an amount over one percent but less than ten percent through transfer reaction to acceptor)
O=C1O[C@H]([C@@H](O)CO)C(O)=C1O [L-Ascorbic acid] | + (a saccharide-transferred product was detected in an amount over one percent but less than ten percent through transfer reaction to acceptor) | + (a saccharide-transferred product was detected in an amount over one percent but less than ten percent through transfer reaction to acceptor) | + (a saccharide-transferred product was detected in an amount over one percent but less than ten percent through transfer reaction to acceptor) | + (a saccharide-transferred product was detected in an amount over one percent but less than ten percent through transfer reaction to acceptor)
C[C@@H](O)[C@H](O)[C@H](O)[C@@H](O)C=O [D-Fucose] | + (a saccharide-transferred product was detected in an amount over one percent but less than ten percent through transfer reaction to acceptor) | + (a saccharide-transferred product was detected in an amount over one percent but less than ten percent through transfer reaction to acceptor) | + (a saccharide-transferred product was detected in an amount over one percent but less than ten percent through transfer reaction to acceptor) | ∀ (a saccharide-transferred product was detected in an amount less than one percent through transfer reaction to acceptor)
O=C(CO)[C@@H](O)[C@H](O)[C@@H](O)CO [L-Sorbose] | + (a saccharide-transferred product was detected in an amount over one percent but less than ten percent through transfer reaction to acceptor) | + (a saccharide-transferred product was detected in an amount over one percent but less than ten percent through transfer reaction to acceptor) | + (a saccharide-transferred product was detected in an amount over one percent but less than ten percent through transfer reaction to acceptor) | + (a saccharide-transferred product was detected in an amount over one percent but less than ten percent through transfer reaction to acceptor)
OC[C@@H](O)[C@@H](O)[C@H](O)[C@@H](O)CO [Sorbitol] | − | − | − | −
O=C[C@@H](O)[C@H](O)[C@H](O)CO [D-Arabinose] | ∀ (a saccharide-transferred product was detected in an amount less than one percent through transfer reaction to acceptor) | ∀ (a saccharide-transferred product was detected in an amount less than one percent through transfer reaction to acceptor) | ∀ (a saccharide-transferred product was detected in an amount less than one percent through transfer reaction to acceptor) | ∀ (a saccharide-transferred product was detected in an amount less than one percent through transfer reaction to acceptor)
OC[C@H]1O[C@@H]2O[C@H]3[C@H](O)[C@@H](O)[C@@H](O[C@H]4[C@H](O)[C@@H](O)[C@@H](O[C@H]5[C@H](O)[C@@H](O)[C@@H](O[C@H]6[C@H](O)[C@@H](O)[C@@H](O[C@H]7[C@H](O)[C@@H](O)[C@@H](O[C@H]1[C@H](O)[C@H]2O)O[C@@H]7CO)O[C@@H]6CO)O[C@@H]5CO)O[C@@H]4CO)O[C@@H]3CO [α-Cyclodextrin] | − | − | − | −
O=C(CO)[C@H](O)[C@H](O)[C@H](O)CO [D-Psicose] | + (a saccharide-transferred product was detected in an amount over one percent but less than ten percent through transfer reaction to acceptor) | + (a saccharide-transferred product was detected in an amount over one percent but less than ten percent through transfer reaction to acceptor) | + (a saccharide-transferred product was detected in an amount over one percent but less than ten percent through transfer reaction to acceptor) | + (a saccharide-transferred product was detected in an amount over one percent but less than ten percent through transfer reaction to acceptor)
CO[C@@H]1O[C@H](CO)[C@@H](O)[C@H](O)[C@H]1O [Methyl-β-glucopyranoside] | ++ (a saccharide-transferred product was detected in an amount over ten percent through transfer reaction to acceptor) | ++ (a saccharide-transferred product was detected in an amount over ten percent through transfer reaction to acceptor) | ++ (a saccharide-transferred product was detected in an amount over ten percent through transfer reaction to acceptor) | ++ (a saccharide-transferred product was detected in an amount over ten percent through transfer reaction to acceptor)
O=C[C@@H](O)[C@@H](O)[C@H](O)[C@H](O)CO [D-Mannose] | − | − | − | ∀ (a saccharide-transferred product was detected in an amount less than one percent through transfer reaction to acceptor)
CC(=O)N[C@H]1C(O)O[C@H](CO)[C@@H](O)[C@@H]1O (some centres unmarked) [N-Acetyl-glucosamine] | + (a saccharide-transferred product was detected in an amount over one percent but less than ten percent through transfer reaction to acceptor) | + (a saccharide-transferred product was detected in an amount over one percent but less than ten percent through transfer reaction to acceptor) | + (a saccharide-transferred product was detected in an amount over one percent but less than ten percent through transfer reaction to acceptor) | −
